What was measured:
anaesthetised cats = experiment: Cardiac stimulant activity in vivo (anaesthetised cats); details: anaesthetised cats pretreated with pempidine and propranolol, administered intravenously; for ED50: Felis catus, iv, read-out: ED50 (dose to increase left ventricular dp/dt max by 50%)
PDE (Peak III) = experiment: Inhibition of phosphodiesterases, PDE (Peak III) enzyme assay; format: biochemical; details: PDE (Peak III) from cat heart, 1 µM cyclic AMP
Description: Sepharose is a registered trademark of Pharmacia Fine Chemicals Inc. The high-speed supernatant from a cat heart homogenate (2 g tissue in 20 ml 20 mM PiPES - (Piperazine-N-N'-bis[2-ethanesulfonic acid]), 50 mM Na acetate, pH 6.5) was applied to a 15 ^x 1.5 cm column of DEAE-Sepharose equilibrated with the homogenisation buffer. The PDE activities were eluted with a gradient of 0.05-1 M Na acetate in 20 mM PIPES.
The enzyme was assayed by incubation at 37° for 4-30 min in 50 mM Tris, 5 mM MgCl2, pH 7.5 with [3-H] cyclic nucleotide (4 ^x 10^5 disintegrations min-') and [14-C] nucleotide 5' monophosphate (3 ^x 10^3 disintegrations min^-1). The assay was stopped by boiling, and the [3-H] […] The reaction mixture was diluted with 0.5 ml 100 mM HEPES (N-2-Hydroxyethylpiperazine-N'-2-ethanesulfonic acid), 100 mM NaCl, pH 8.5, and applied to the column. The column was extensively washed with the same buffer, and the 5' nucleotide eluted with 6 ml 025 M acetic acid.

ventricular strips = experiment: Cardiac stimulant activity in vitro (electrically stimulated ventricular strips); format: cell-based, Guinea pigs; details: Cavia porcellus; guinea pig right ventricle strips, stimulated at 1.0 Hz, Krebs Henseleit solution at 37°C, concentration in the bathing fluid; read-out: EC50 (50% increase in the force of contraction of the ventricular strips)
Description: The compounds of formula (I) and their pharmaceutically acceptable salts are tested for cardiac stimulant activity following a procedure based on that of S.C. Verma and J. H. McNeill (J.Pharm & Exp. Therapeutics, 200, 352-362 (1977)). Guinea pigs (500-700 g) of either sex are sacrificed and the hearts are quickly removed and transferred to a dissecting dish containing oxygenated bathing fluid. While in the bathing medium, the right ventricle is cut into two strips. The strips are each suspended in a 50 ml bath containing Krebs Henseleit solution at 37°C, and the bath is bubbled with 95% oxygen and 5% carbon dioxide. The ventricular strips are electrically stimulated at a frequency of 1.0 Hz, at double the threshold voltage. A resting tension of 1.0 g is applied to the strips and the tension is kept constant by readjustment during an equilibration period of 60 minutes. The bathing fluid is frequently changed during this period. When a steady base line is obtained, a compound under test is added to the bathing fluid and a cumulative concentration response curve is plotted.

SMILES	ED50 (anaesthetised cats) [µmol/kg]	duration of activity (anaesthetised cats)	IC50 (PDE (Peak III)) [µM]	EC50 (ventricular strips) [µM]
Nc1cc(-c2ccncc2)c[nH]c1=O [Amrinone]	5.6	short duration of activity	51.8	
Cc1[nH]c(=O)c(C#N)cc1-c1ccncc1 (single isomer, unassigned) [Milrinone]			2.2	
CC1CC(=O)NN=C1c1ccc(NC2=NC(=O)CN2)cc1 (centres unmarked) [Example 1, 6-[4-(4-Oxo-2-imidazolin-2-ylamino)phenyl]-5-methyl-4,5-dihydro-3(2H)-pyridazinone]	0.4	long duration of activity	1.84	14
